This passage reports pest or weed control results from patent US9265253B2, “Use of macrocyclic picolinamides as fungicides” (DOW AGROSCIENCES LLC, priority 2013, dated 2016).

SMILES strings stand for the structures. Like-named read-outs stand apart in the source and are kept apart here.

Assay [1] has as its system Puccinia triticina; Synonym: Puccinia recondite f. Sp. Tritici. Nature of the assay: Wheat Brown Rust (PUCCRT) disease control. The class given is in vivo. Conditions: Puccinia triticina, topical. An outline of the steps: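 Brown rust on first-leaf Yuma wheat: spore inoculation before or after spray application (acetone/Triton X-100 solution, or EC with Trycol in track spray), overnight 100% RH at 22 °C, disease developed at 24 °C. Severity scored 0–100% and converted to percent control against untreated.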

Assay [2] has as its system Mycosphaerella graminicola; Anamorph: Septoria tritici. Nature of the assay: Leaf Blotch of Wheat (SEPTTR) disease control. The class given is in vivo. Conditions: Zymoseptoria tritici. The method, boiled down:
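Preventive or curative tests: first-leaf Yuma wheat, sprayed to run-off, inoculated with S. tritici, dew chamber at 100% humidity, then greenhouse at 20° C. Severity on the first leaf is scored on a 0–100% scale and expressed as % control against untreated plants.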

Setting [3] is: 24 h, 1 Day Protectant, rate 100 ppm, read-out: PUCCRT 1 DP disease control.
The mark [4] stands for this setting: 24 h, 1 Day Protectant, rate 121.5 g/H, read-out: PUCCRT 1 DP disease control.
Setting [5] is: 72 h, 3 Day Curative, rate 100 ppm, read-out: PUCCRT 3 DC disease control.
Where [6] appears, read: 72 h, 3 Day Curative, rate 121.5 g/H, read-out: PUCCRT 3 DC disease control.
[7] abbreviates: 24 h, 1 Day Protectant, rate 100 ppm, read-out: SEPTTR 1 DP disease control.
[8] abbreviates: 24 h, 1 Day Protectant, rate 121.5 g/H, read-out: SEPTTR 1 DP disease control.
Setting [9] is: 72 h, 3 Day Curative, rate 100 ppm, read-out: SEPTTR 3 DC disease control.
[10] abbreviates: 72 h, 3 Day Curative, rate 121.5 g/H, read-out: SEPTTR 3 DC disease control.

In the case of `COc1ccnc(C(=O)N[C@H]2CCC[C@H](CCC(C)C)[C@@H](OC)[C@H](C)OC2=O)c1OCOC(C)=O` [Compound F95], the pest or weed control at 100 ppm in assay [1] (setting [3]), in assay [1] (setting [5]), in assay [2] (setting [7]) and in assay [2] (setting [9]) was 80 to 100% throughout. In addition, the pest or weed control at 121.5 g/ha in assay [1] (setting [4]) lay within 80 to 100%; in assay [1] (setting [6]), 0 to 80%; in assay [2] (setting [8]) it was 80 to 100%; in assay [2] (setting [10]) it was 0 to 80%.
Consider `CCO[C@@H]1[C@@H](Cc2ccccc2)CCC[C@H](NC(=O)c2nccc(OC)c2OCOC(C)=O)C(=O)O[C@H]1C` [Compound F111], for which the pest or weed control at 121.5 g/ha in assay [1] (setting [4]), in assay [1] (setting [6]), in assay [2] (setting [8]) and in assay [2] (setting [10]) was 80 to 100% in each case.
As to `COc1ccnc(C(=O)N[C@H]2CCC[C@H](Cc3ccc(F)cc3)[C@@H](OC(=O)C(C)C)[C@H](C)OC2=O)c1O` [Compound F17], the pest or weed control at 100 ppm in assay [1] (setting [3]) fell in the range of 80 to 100%; in assay [1] (setting [5]) it was 0 to 80%; in assay [2] (setting [7]), 80 to 100%; in assay [2] (setting [9]), 80 to 100%.
Regarding `CC[C@H]1CCC[C@H](NC(=O)c2nccc(OC)c2OCOC(C)=O)C(=O)O[C@@H](C)[C@@H]1Oc1ccccc1` [Compound F136], the pest or weed control at 100 ppm in assay [1] (setting [3]), in assay [1] (setting [5]), in assay [2] (setting [7]) and in assay [2] (setting [9]) was 80 to 100% each time. Besides, the pest or weed control at 121.5 g/ha in assay [1] (setting [4]), in assay [1] (setting [6]), in assay [2] (setting [8]) and in assay [2] (setting [10]) was 80 to 100% throughout.
`COc1ccnc(C(=O)N[C@H]2CCC[C@H](C)[C@@H](OCc3ccccc3)[C@H](C)OC2=O)c1OC(C)=O` [Compound F77]: the pest or weed control at 100 ppm in assay [1] (setting [3]), in assay [1] (setting [5]), in assay [2] (setting [7]) and in assay [2] (setting [9]) was 80 to 100% each time. In addition, the pest or weed control at 121.5 g/ha in assay [1] (setting [4]), in assay [1] (setting [6]), in assay [2] (setting [8]) and in assay [2] (setting [10]) was 80 to 100% throughout.
`COc1ccnc(C(=O)N[C@H]2CCC[C@H](CC3CCCCC3)[C@@H](OCC3CC3)[C@H](C)OC2=O)c1OCOC(C)=O` [Compound F97]: the pest or weed control at 100 ppm in assay [1] (setting [3]), in assay [1] (setting [5]), in assay [2] (setting [7]) and in assay [2] (setting [9]) was 80 to 100% each time. Besides, the pest or weed control at 121.5 g/ha in assay [1] (setting [4]), in assay [1] (setting [6]), in assay [2] (setting [8]) and in assay [2] (setting [10]) was 80 to 100% in each case.
In the case of `COCCC(=O)Oc1c(OC)ccnc1C(=O)N[C@H]1CCC[C@H](CC2CCCC2)[C@@H](Oc2ccccc2)[C@H](C)OC1=O` [Compound F153], the pest or weed control at 100 ppm in assay [1] (setting [3]), in assay [1] (setting [5]), in assay [2] (setting [7]) and in assay [2] (setting [9]) was 80 to 100% in each case. The pest or weed control at 121.5 g/ha in assay [1] (setting [4]) fell in the range of 80 to 100%; in assay [1] (setting [6]) it was 0 to 80%; in assay [2] (setting [8]) it was 80 to 100%; in assay [2] (setting [10]) it was 80 to 100%.
Take `CCCO[C@@H]1[C@@H](Cc2ccc(OC)cc2)CCC[C@H](NC(=O)c2nccc(OC)c2O)C(=O)O[C@H]1C` [Compound F33]: the pest or weed control at 100 ppm in assay [1] (setting [3]), in assay [1] (setting [5]), in assay [2] (setting [7]) and in assay [2] (setting [9]) was 80 to 100% in each case.
For `CCCO[C@@H]1[C@@H](Cc2ccc(F)cc2)CCC[C@H](NC(=O)c2nccc(OC)c2O)C(=O)O[C@H]1C` [Compound F13], the pest or weed control at 100 ppm is 0 to 80% in assay [1] (setting [5]), 80 to 100% in assay [2] (setting [7]) and 80 to 100% in assay [2] (setting [9]).
With `CCOCC(=O)OCOc1c(OC)ccnc1C(=O)N[C@H]1CCC[C@H](Cc2ccc(C)cc2)[C@@H](OCCCC(F)(F)F)[C@H](C)OC1=O` [Compound F190, ((4-methoxy-2-(((3S,7R,8R,9S)-9-methyl-7-(4-methylbenzyl)-2-oxo-8-(4,4,4-trifluorobutoxyl)oxonan-3-yl)carbamoyl)pyridin-3-yl)oxy)methyl 2-ethoxyacetate], the pest or weed control at 100 ppm in assay [1] (24 h, Wheat Brown Rust, 1 Day Protectant, rate 100 ppm (high volume application), read-out: Disease control PUCCRT 1 DP) lay within 80 to 100%; in assay [2] (24 h, Wheat Leaf Blotch, 1 Day Protectant, rate 100 ppm (high volume application), read-out: Disease control SEPTTR 1 DP) it was 80 to 100%; in assay [2] (72 h, Wheat Leaf Blotch, 3 Day Curative, rate 100 ppm (high volume application), read-out: Disease control SEPTTR 3 DC) it was 80 to 100%. Moreover, the pest or weed control at 121.5 g/ha was in the range of 80 to 100% in assay [1] (24 h, Wheat Brown Rust, 1 Day Protectant, rate 121.5 g/H (low volume application), read-out: Disease control PUCCRT 1 DP); 0 to 80% in assay [1] (72 h, Wheat Brown Rust, 3 Day Curative, rate 121.5 g/H (low volume application), read-out: Disease control PUCCRT 3 DC); 80 to 100% in assay [2] (24 h, Wheat Leaf Blotch, 1 Day Protectant, rate 121.5 g/H (low volume application), read-out: Disease control SEPTTR 1 DP); 80 to 100% in assay [2] (72 h, Wheat Leaf Blotch, 3 Day Curative, rate 121.5 g/H (low volume application), read-out: Disease control SEPTTR 3 DC).
For the compound `COc1ccnc(C(=O)N[C@H]2CCC[C@H](Cc3ccccc3)[C@@H](OCC(C)C)[C@H](C)OC2=O)c1O` [Compound F18], the pest or weed control at 100 ppm in assay [1] (setting [3]) lay within 80 to 100%; in assay [1] (setting [5]), 0 to 80%; in assay [2] (setting [7]) it was 80 to 100%; in assay [2] (setting [9]), 80 to 100%.
Turning to `C=CCO[C@@H]1[C@@H](Cc2ccc(F)cc2)CCC[C@H](NC(=O)c2nccc(OC)c2O)C(=O)O[C@H]1C` [Compound F12], the pest or weed control at 100 ppm in assay [1] (setting [3]) was in the range of 0 to 80%; in assay [1] (setting [5]), 80 to 100%; in assay [2] (setting [7]), 80 to 100%; in assay [2] (setting [9]), 80 to 100%.
Turning to `CCOCC(=O)Oc1c(OC)ccnc1C(=O)N[C@H]1CCC[C@H](CCOc2ccccc2)[C@@H](Oc2ccccc2)[C@H](C)OC1=O` [Compound F185], the pest or weed control at 100 ppm in assay [1] (setting [3]), in assay [1] (setting [5]), in assay [2] (setting [7]) and in assay [2] (setting [9]) was 80 to 100% throughout.
Take `CCOCC(=O)OCOc1c(OC)ccnc1C(=O)N[C@H]1CCC[C@H](CCC(C)C)[C@@H](OC)[C@H](C)OC1=O` [Compound F163]: the pest or weed control at 100 ppm in assay [1] (setting [3]) fell in the range of 80 to 100%; in assay [1] (setting [5]), 0 to 80%; in assay [2] (setting [7]), 80 to 100%; in assay [2] (setting [9]) it was 80 to 100%. Moreover, the pest or weed control at 121.5 g/ha lay within 0 to 80% in assay [1] (setting [4]), 0 to 80% in assay [1] (setting [6]), 80 to 100% in assay [2] (setting [8]) and 0 to 80% in assay [2] (setting [10]).
For `COc1ccnc(C(=O)N[C@H]2CCC[C@H](Cc3ccc(C)cc3)[C@@H](OCCCC(F)(F)F)[C@H](C)OC2=O)c1OCOC(C)=O` [Compound F139], the pest or weed control at 100 ppm in assay [1] (setting [3]), in assay [1] (setting [5]), in assay [2] (setting [7]) and in assay [2] (setting [9]) was 80 to 100% throughout. In addition, the pest or weed control at 121.5 g/ha in assay [1] (setting [4]) lay in the range of 80 to 100%; in assay [1] (setting [6]), 0 to 80%; in assay [2] (setting [8]) it was 80 to 100%; in assay [2] (setting [10]), 80 to 100%.
With `CCCO[C@@H]1[C@@H](CCC(C)C)CCC[C@H](NC(=O)c2nccc(OC)c2O)C(=O)O[C@H]1C` [Compound F4], the pest or weed control at 100 ppm in assay [1] (setting [3]), in assay [1] (setting [5]), in assay [2] (setting [7]) and in assay [2] (setting [9]) was 80 to 100% throughout.
For the compound `CCOCC(=O)OCOc1c(OC)ccnc1C(=O)N[C@H]1CCC[C@H](CC2CCCC2)[C@@H](OCC2CC2)[C@H](C)OC1=O` [Compound F178], the pest or weed control at 100 ppm in assay [1] (setting [3]), in assay [1] (setting [5]), in assay [2] (setting [7]) and in assay [2] (setting [9]) was 80 to 100% each time. The pest or weed control at 121.5 g/ha in assay [1] (setting [4]) was in the range of 80 to 100%; in assay [1] (setting [6]) it was 0 to 80%; in assay [2] (setting [8]) it was 80 to 100%; in assay [2] (setting [10]) it was 80 to 100%.
With `COc1ccnc(C(=O)N[C@H]2CCC[C@H](CCC(C)C)[C@@H](OCC(C)C)[C@H](C)OC2=O)c1OCOC(=O)C(C)C` [Compound F148], the pest or weed control at 100 ppm in assay [1] (setting [3]), in assay [1] (setting [5]), in assay [2] (setting [7]) and in assay [2] (setting [9]) was 80 to 100% in each case. In addition, the pest or weed control at 121.5 g/ha in assay [1] (setting [4]), in assay [1] (setting [6]), in assay [2] (setting [8]) and in assay [2] (setting [10]) was 80 to 100% in each case.
